The numbers were not newly measured in patent publication US20070015926A1, “Method of preparing R-(+)-alpha-lipoic acid and its salt” (Nanjing Rally Biochemical Inc., priority 2005, published 2007), which cites them from elsewhere.

For the data set the following is noted: if given adequate oxygen.

Consider `O=C(O)CCCC[C@@H]1CCSS1` [R-(+)-α-Lipoic Acid], for which the polymerization result is recorded as “susceptible to be polymerized”.
